The subject of test [1] is human TLR2, TLR3, TLR4, TLR5, TLR7, TLR9, TLR10, Nod1 and Nod2. Put plainly: counter-screen in reporter cell lines specific for other human TLRs and Nods. In kind it is cell-based.
The subject of test [2] is human peripheral blood mononuclear cells. In kind it is cell-based. The settings on record: human PBMCs and whole human blood, Fig. 6.

For four compounds, specificity in counter-screens and cytokine/chemokine induction profile results are on record in paper PMC4105021 (ChemMedChem, 2014).

Take `CCCCOc1cc2ccccc2nc1N` [Compound 6, 3-butoxyquinolin-2-amine]: the specificity in counter-screens result in test [1] is recorded as “specific for human TLR8”.
Take `CCCCNc1cc2ccccc2nc1N` [Compound 9, N^3-butylquinoline-2,3-diamine]: the specificity in counter-screens result in test [1] is reported as “specific for human TLR8”.
In the case of `CCCCSc1cc2ccccc2nc1N` [Compound 12, 3-(butylthio)quinolin-2-amine], the specificity in counter-screens entry in test [1] is given as “specific for human TLR8”.
As to `CCCCCc1cc2ccccc2nc1N` [Compound 14b, 3-pentylquinolin-2-amine], the cytokine/chemokine induction profile result in test [2] was “induction of a specific set of chemokines and proinflammatory cytokines, including interleukins 12 and 18”.
